Data as given in patent US20110046724A1, “Expansible Biocompatible Coats Comprising a Biologically Active Substance” (Avidal Vascular GMBH, priority 2008, published 2011).

Experiments:
[1] = test system: human endothelial progenitor cells (EPC); test: short-term application of paclitaxel to human endothelial progenitor cells; format: cell-based; conditions: effect dose and time dependent
Text: (§1) This effect is dose and time dependent; rising concentrations in paclitaxel and longer application show higher inhibition of cell proliferation and migration.

[2] = test system: smooth muscle cells (SCM); test: short-term application of paclitaxel to smooth muscle cells; format: cell-based, human; conditions: effect dose and time dependent
Text: as §1

CC(=O)O[C@H]1C(=O)[C@@]2(C)[C@H]([C@H](OC(=O)c3ccccc3)[C@]3(O)C[C@H](OC(=O)[C@H](O)[C@@H](NC(=O)c4ccccc4)c4ccccc4)C(C)=C1C3(C)C)[C@]1(OC(C)=O)CO[C@@H]1C[C@@H]2O [paclitaxel]
apoptosis, inhibition of cell proliferation and migration [1]: leads to apoptosis and therefore inhibition of cell proliferation and migration
apoptosis, inhibition of cell proliferation and migration [2]: leads to apoptosis and therefore inhibition of cell proliferation and migration
